{
  "source": "patent US20150044284A1",
  "about": "“DOSAGE FORM COMPRISING A STEROID 5-ALPHA-REDUCTASE INHIBITOR AND AN ALPHA BLOCKER, PROCESS FOR PREPARING OF A DOSAGE FORM, USE OF DOSAGE FORM, METHOD FOR THE TREATMENT OR PROPHYLAXIS OF A DISEASE OR CONDITION MEDIATED BY ANDROGEN” (EMS S.A., priority 2013, published 2015)",
  "origin": "cited, not measured here",
  "key": {"[1]": {"test_system": "DHT (dihydrotestosterone)", "conditions": "after only two weeks"}},
  "data": [
    {"smiles": "C[C@]12C=CC(=O)N[C@@H]1CC[C@@H]1[C@@H]2CC[C@]2(C)[C@@H](C(=O)Nc3cc(C(F)(F)F)ccc3C(F)(F)F)CC[C@@H]12", "note": "[dutasteride]", "values": [
      {"measurement": "Reduction of DHT levels", "setting": "[1]", "result": 90, "unit": "%"},
      {"measurement": "Solubility in water", "result": "completely insoluble in water"}
    ]}
  ]
}
